{
  "source": "patent US7754754B2",
  "about": "“Pharmaceutical formulations containing substituted 2 heteroarylaminoacetic acid compounds” (Gruenenthal GmbH, priority 2003, dated 2010)",
  "key": {"[1]": {"target": "T1, glycineB binding site of the NMDA receptor channel (Rattus norvegicus, UniProt P35439)", "T1 construct": "the cortex and hippocampus are dissected out of freshly harvested rat brains and homogenised; from tissue; host or cells: rat (Wistar, male) brain cortex and hippocampus membrane homogenate", "experiment": "Receptor binding study, displacement of (3H)-MDL 105.519 from rat brain membrane homogenates", "conditions": "10 μM of the compound under test, rat cortex and hippocampus membrane homogenate; for inhibition at 10 µM: read-out: % inhibition (percentage fraction of the bound radioactive ligand displaced from its specific binding)", "procedure": "(a) Receptor Binding Study (glycineB Binding Site of the NMDA Receptor Channel)\nThe affinity of the compounds of the above general formula I used according to the invention for the glycine binding site of the NMDA receptor channel is determined using brain membrane homogenates (homogenate of cortex and hippocampus area from the brain of male rats, Wistar strain), as for example described in B. M. Baron, B. W. Siegel, B. L. Harrison, R. S. Gross, C. Hawes and P. Towers, Journal of Pharmacology and Experimental Therapeutics, (1996), vol. 279, page 62. The corresponding literature description is hereby introduced as a reference and is deemed to be part of the disclosure.\nTo this end, the cortex and hippocampus are dissected out of freshly harvested rat brains and homogenised with ice cooling in 5 mmol/l of TRIS-acetate buffer, […] of sucrose, pH 7.4 (10 ml/g fresh weight) using a Potter homogeniser (Braun/Melsungen, 10 piston strokes at 500 rpm) and then centrifuged for 10 minutes at 1,000 g and 4° C. The first supernatant is collected and the sediment again homogenised with ice cooling with 5 mmol/l of tris-acetate buffer, 0.32 mol/l of sucrose, pH 7.4 (5 ml/g of original fresh weight) with the Potter homogeniser (10 piston strokes at 500 rpm) and centrifuged for 10 minutes at 1,000 g and 4° C. The resultant supernatant is combined with the supernatant from the first centrifugation and centrifuged at 17,000 g for 20 minutes at 4° C. The supernatant after this centrifugation is discarded and the membrane sediment resuspended with 5 mmol/l of TRIS-acetate buffer, pH 8.0 (20 ml/g of original fresh weight) and homogenised with 10 piston strokes at 500 rpm.\nThe membrane homogenate is then incubated for 1 hour at 4° C. and centrifuged for 30 minutes at 50,000 g and 4° C. The supernatant is discarded and the centrifuge tubes containing the membrane sediment are sealed with Parafilm and frozen for 24 hours at −20° C. On the following day, the membrane sediment is thawed and resuspended with ice-cold 5 mmol/I TRIS-acetate buffer, 0.1% saponin (wt./vol.), pH 7.0 (10 ml/g of original fresh weight) and homogenised with 10 piston strokes at 500 rpm and then centrifuged for 20 minutes at 50,000 g and 4° C. The resultant supernatant is discarded and the sediment resuspended in a small volume with 5 mmol/l of TRIS-acetate buffer, pH 7.0 (approx. 2 ml/g of original fresh weight) and again homogenised with 10 piston strokes at 500 rpm. After determination of the protein content, the membrane homogenate is adjusted with 5 mmol/l TRIS-acetate buffer, pH 7.0, to a protein concentration of 10 mg of protein/ml and frozen in aliquots until used for testing.\nThe receptor binding test is performed by thawing aliquots, diluting them 1:10 with 5 mmol/l TRIS-acetate buffer, pH 7.0, homogenising them with ice-cooling with 10 piston strokes at 500 rpm with the Potter homogeniser (10 piston strokes at 500 rpm) and centrifuging them for 60 minutes at 55,000 g at 4° C. The supernatant is decanted and the membrane sediment adjusted with ice-cold 50 mmol/l TRIS-acetate buffer, pH 7.0, to a protein concentration of 1 mg/ml and again homogenised with 10 piston strokes at 500 rpm and kept in suspension in an ice bath with stirring on a magnetic stirrer. This membrane homogenate is used in the receptor binding test in a quantity of 100 μl per 1 ml batch (0.1 mg of protein/ml in the final batch). In the binding test, the buffer used is 50 mmol/l TRIS-acetate buffer, pH 7.0, and the radioactive ligand […] of (3H)-MDL 105.519 (B. M. Baron et al. 1996). The level of nonspecific binding is determined in the presence of 1 mmol/l of glycine.\nIn further batches, the compounds used according to the invention are added in concentration series and the displacement of the radioactive ligand from its specific binding at the glycine-binding site of the NMDA receptor channel is determined. […]"}, "male albino mice (NMRI)": {"tested_on": "male albino mice (NMRI)", "experiment": "Formaldehyde test (mouse), second (late) phase", "assay_type": "in vivo", "conditions": "formaldehyde-induced nociception", "procedure": "(b) Formaldehyde Test (Mouse)\nThe investigations for determining the antinociceptive action of the substituted 2-heteroarylaminoacetic acid compounds of the above general formula I used according to the invention are carried out by the formaldehyde test on male albino mice (NMRI, 25-35 g, Iffa, Credo, Belgium).\nIn the formaldehyde test, a distinction is drawn between the first (early) phase (0-15 min after formaldehyde injection) and the second (late) phase (15-60 min after formaldehyde injection) (D. Dubuisson et al., Pain, vol. 4, pp. 161-174 (1977)). The early phase, being a direct response to the formaldehyde injection, is considered to be a model of acute pain, while the late phase is considered to be a model of persistent (chronic) pain (T. J. Coderre et al., Pain, vol. 52, pp. 259-285 (1993)). The corresponding literature descriptions are hereby introduced as a reference and are deemed to be part of the disclosure.\nThe substituted 2-heteroarylaminoacetic acid compounds of the above general formula I used according to the invention are investigated in the second phase of the formaldehyde test in order to obtain information regarding the action of the substances in chronic/inflammatory pain.\nA nociceptive reaction is induced in the freely mobile test animals by a single, subcutaneous formaldehyde injection (20 μl, 1% aqueous solution) into the dorsal side of the rear hind paw, the reaction being expressed by distinct licking and biting of the affected paw.\nFor the investigation period in the second (late) phase of the formaldehyde test, nociceptive behaviour is continuously recorded by observing the animals. […] After injection of the substances which are antinociceptively active in the formaldehyde test, the described behaviours of the animals are reduced or even eliminated. In the same manner as in the substance tests, in which the animals receive an injection of test substance before the formaldehyde, the control animals are injected with vehicle, i.e. solvent (for example 0.9% NaCl solution) before administration of the formaldehyde. The behaviour the animals after administration of the substance (n=10 per substance dose) is compared with a control group (n=10). On the basis of the quantification of the pain behaviour, the action of the substance in the formaldehyde test is determined as a percentage change of the control. ED50 calculations are carried out by regression analysis. The time of administration before the formaldehyde injection was selected as a function of the mode of administration of the compounds used according to the invention (intraperitoneal: 15 min; intravenous: 5 min)."}},
  "data": [
    {"compound": "O=C(O)C(Nc1cc(Cl)cc(Cl)c1)c1cc2ccccc2s1", "note": "(centres unmarked) [Example 2, (Benzo[b]thiophen-2-yl)-(3,5-dichlorophenylamino)acetic acid]", "values": [
      {"measurement": "inhibition at 10 µM", "setting": "[1]", "value": 85, "unit": "%"},
      {"measurement": "Inhibition (%) at dose", "setting": "male albino mice (NMRI); at 46.4 mg/kg", "value": "55% (at 46.4 mg/kg)"}
    ]},
    {"compound": "O=C(O)C(Nc1cc(Cl)cc(Cl)c1)c1csc2ccccc12", "note": "(centres unmarked) [Example 3, (Benzo[b]thiophen-3-yl)-(3,5-dichlorophenylamino)acetic acid]", "values": [
      {"measurement": "inhibition at 10 µM", "setting": "[1]", "value": 15, "unit": "%"}
    ]},
    {"compound": "O=C([O-])C(Nc1cc(Cl)cc(Cl)c1)c1cc2ccccc2o1.[Na+]", "note": "(centres unmarked) [Example 6, (Benzofuran-2-yl)-(3,5-dichlorophenylamino)acetic acid, sodium salt]", "values": [
      {"measurement": "inhibition at 10 µM", "setting": "[1]", "value": 97, "unit": "%"},
      {"measurement": "Inhibition (%) at dose", "setting": "male albino mice (NMRI); at 10 mg/kg", "value": "42% (at 10 mg/kg)"}
    ]},
    {"compound": "O=C([O-])C(Nc1cc(Cl)cc(Cl)c1)c1cc2ccccc2s1.[Na+]", "note": "(centres unmarked) [Example 7, (Benzo[b]thiophen-2-yl)-(3,5-dichlorophenylamino)acetic acid, sodium salt]", "values": [
      {"measurement": "% inhibition (percentage fraction of the bound radioactive ligand displaced from its specific binding)", "setting": "[1]", "value": 85, "unit": "%"},
      {"measurement": "Inhibition (%) at dose", "setting": "male albino mice (NMRI); at 46.4 mg/kg", "value": "11% (at 46.4 mg/kg)"}
    ]},
    {"compound": "O=C([O-])C(Nc1cc(Cl)cc(Cl)c1)c1csc2ccccc12.[Na+]", "note": "(centres unmarked) [Example 8, (Benzo[b]thiophen-3-yl)-(3,5-dichlorophenylamino)acetic acid, sodium salt]", "values": [
      {"measurement": "% inhibition (percentage fraction of the bound radioactive ligand displaced from its specific binding)", "setting": "[1]", "value": 24, "unit": "%"}
    ]},
    {"compound": "(Benzo[b]furan-2-yl)-(3,5-bis(trifluoromethyl)phenyl)acetic acid, sodium salt [Example 10]", "values": [
      {"measurement": "% inhibition (percentage fraction of the bound radioactive ligand displaced from its specific binding)", "setting": "[1]", "value": 29, "unit": "%"},
      {"measurement": "Inhibition (%) at dose", "setting": "male albino mice (NMRI); at 46.4 mg/kg", "value": "60% (at 46.4 mg/kg)"}
    ]},
    {"compound": "(Benzo[b]thiophen-2-yl)-(3,5-bis(trifluoromethyl)phenyl)acetic acid, sodium salt [Example 9]", "values": [
      {"measurement": "% inhibition (percentage fraction of the bound radioactive ligand displaced from its specific binding)", "setting": "[1]", "value": 13, "unit": "%"}
    ]}
  ]
}
